Measurements as given in ChEMBL document CHEMBL4622877, “Aspeterreurone A, a Cytotoxic Dihydrobenzofuran-Phenyl Acrylate Hybrid from the Deep-Sea-Derived Fungus Aspergillus terreus CC-S06-18” (J Nat Prod, 2020).
Activity calls are given as the source filed them. No cut-off for these calls is given here.

Experiments:
HGC-27 = test: Cytotoxicity against human HGC27 cells after 72 hrs by CCK8 assay; assay type: functional, cell-based; conditions: for IC50: HGC-27, 72 h
MGC-803 [1] = test: Cytotoxicity against human MGC803 cells after 72 hrs by CCK8 assay; assay type: functional, cell-based; conditions: for IC50: MGC-803, 72 h
BGC-823 = test: Cytotoxicity against human BGC823 cells after 72 hrs by CCK8 assay; assay type: functional, cell-based; conditions: for IC50: BGC-823, 72 h
AGS = test: Cytotoxicity against human AGS cells after 72 hrs by CCK8 assay; assay type: functional, cell-based
GES1 = test: Cytotoxicity against human GES-1 cells after 72 hrs by CCK8 assay; assay type: cell-based; conditions: GES1, 72 h
MGC-803 [2] = test: Induction of cell cycle arrest in human MGC803 cells assessed as accumulation of cells at G1 phase at 2 uM incubated for 24 hrs propidium iodide-A staining-based flow cytometric analysis (reference value: 52%); assay type: functional
MGC-803 [3] = test: Induction of cell cycle arrest in human MGC803 cells assessed as accumulation of cells at S phase at 2 uM incubated for 24 hrs propidium iodide-A staining-based flow cytometric analysis (reference value: 17%); assay type: functional
MGC-803 [4] = test: Induction of cell cycle arrest in human MGC803 cells assessed as accumulation of cells at G2/M phase at 2 uM incubated for 24 hrs propidium iodide-A staining-based flow cytometric analysis (reference value: 31%); assay type: functional
MGC-803 [5] = test: Induction of cell cycle arrest in human MGC803 cells assessed as accumulation of cells at G1 phase at 5 uM incubated for 24 hrs propidium iodide-A staining-based flow cytometric analysis (reference value: 52%); assay type: functional
MGC-803 [6] = test: Induction of cell cycle arrest in human MGC803 cells assessed as accumulation of cells at S phase at 5 uM incubated for 24 hrs propidium iodide-A staining-based flow cytometric analysis (reference value: 17%); assay type: functional
MGC-803 [7] = test: Induction of cell cycle arrest in human MGC803 cells assessed as accumulation of cells at G2/M phase at 5 uM incubated for 24 hrs propidium iodide-A staining-based flow cytometric analysis (reference value: 31%); assay type: functional
MGC-803 [8] = test: Induction of cell cycle arrest in human MGC803 cells assessed as accumulation of cells at G1 phase at 10 uM incubated for 24 hrs propidium iodide-A staining-based flow cytometric analysis (reference value: 52%); assay type: functional
MGC-803 [9] = test: Induction of cell cycle arrest in human MGC803 cells assessed as accumulation of cells at S phase at 10 uM incubated for 24 hrs propidium iodide-A staining-based flow cytometric analysis (reference value: 17%); assay type: functional
MGC-803 [10] = test: Induction of cell cycle arrest in human MGC803 cells assessed as accumulation of cells at G2/M phase at 10 uM incubated for 24 hrs propidium iodide-A staining-based flow cytometric analysis (reference value: 31%); assay type: functional
MGC-803 [11] = test: Induction of cell cycle arrest in human MGC803 cells assessed as accumulation of cells at G1 phase at 20 uM incubated for 24 hrs propidium iodide-A staining-based flow cytometric analysis (reference value: 52%); assay type: functional
MGC-803 [12] = test: Induction of cell cycle arrest in human MGC803 cells assessed as accumulation of cells at S phase at 20 uM incubated for 24 hrs propidium iodide-A staining-based flow cytometric analysis (reference value: 17%); assay type: functional
MGC-803 [13] = test: Induction of cell cycle arrest in human MGC803 cells assessed as accumulation of cells at G2/M phase at 20 uM incubated for 24 hrs propidium iodide-A staining-based flow cytometric analysis (reference value: 31%); assay type: functional
MGC-803 [14] = test: Induction of apoptosis in human MGC803 cells assessed as viable cells at 2 uM incubated for 48 hrs by Annexin V-FITC/propidium iodide staining-based flow cytometric analysis (reference value: 97.15%); assay type: functional; conditions: MGC-803, 48 h, read-out: Activity
MGC-803 [15] = test: Induction of apoptosis in human MGC803 cells assessed as early apoptotic cells at 2 uM incubated for 48 hrs by Annexin V-FITC/propidium iodide staining-based flow cytometric analysis (reference value: 1.83%); assay type: functional
MGC-803 [16] = test: Induction of apoptosis in human MGC803 cells assessed as late apoptotic cells at 2 uM incubated for 48 hrs by Annexin V-FITC/propidium iodide staining-based flow cytometric analysis (reference value: 0.84%); assay type: functional
MGC-803 [17] = test: Induction of apoptosis in human MGC803 cells assessed as necrotic cells at 2 uM incubated for 48 hrs by Annexin V-FITC/propidium iodide staining-based flow cytometric analysis (reference value: 0.18%); assay type: functional
MGC-803 [18] = test: Induction of apoptosis in human MGC803 cells assessed as viable cells at 5 uM incubated for 48 hrs by Annexin V-FITC/propidium iodide staining-based flow cytometric analysis (reference value: 97.15%); assay type: functional; conditions: MGC-803, 48 h, read-out: Activity
MGC-803 [19] = test: Induction of apoptosis in human MGC803 cells assessed as early apoptotic cells at 5 uM incubated for 48 hrs by Annexin V-FITC/propidium iodide staining-based flow cytometric analysis (reference value: 1.83%); assay type: functional
MGC-803 [20] = test: Induction of apoptosis in human MGC803 cells assessed as late apoptotic cells at 5 uM incubated for 48 hrs by Annexin V-FITC/propidium iodide staining-based flow cytometric analysis (reference value: 0.84%); assay type: functional
MGC-803 [21] = test: Induction of apoptosis in human MGC803 cells assessed as necrotic cells at 5 uM incubated for 48 hrs by Annexin V-FITC/propidium iodide staining-based flow cytometric analysis (reference value: 0.18%); assay type: functional
MGC-803 [22] = test: Induction of apoptosis in human MGC803 cells assessed as viable cells at 10 uM incubated for 48 hrs by Annexin V-FITC/propidium iodide staining-based flow cytometric analysis (reference value: 97.15%); assay type: functional; conditions: MGC-803, 48 h, read-out: Activity
MGC-803 [23] = test: Induction of apoptosis in human MGC803 cells assessed as early apoptotic cells at 10 uM incubated for 48 hrs by Annexin V-FITC/propidium iodide staining-based flow cytometric analysis (reference value: 1.83%); assay type: functional
MGC-803 [24] = test: Induction of apoptosis in human MGC803 cells assessed as late apoptotic cells at 10 uM incubated for 48 hrs by Annexin V-FITC/propidium iodide staining-based flow cytometric analysis (reference value: 0.84%); assay type: functional
MGC-803 [25] = test: Induction of apoptosis in human MGC803 cells assessed as necrotic cells at 10 uM incubated for 48 hrs by Annexin V-FITC/propidium iodide staining-based flow cytometric analysis (reference value: 0.18%); assay type: functional
MGC-803 [26] = test: Induction of apoptosis in human MGC803 cells assessed as viable cells at 20 uM incubated for 48 hrs by Annexin V-FITC/propidium iodide staining-based flow cytometric analysis (reference value: 97.15%); assay type: functional; conditions: MGC-803, 48 h, read-out: Activity
MGC-803 [27] = test: Induction of apoptosis in human MGC803 cells assessed as early apoptotic cells at 20 uM incubated for 48 hrs by Annexin V-FITC/propidium iodide staining-based flow cytometric analysis (reference value: 1.83%); assay type: functional
MGC-803 [28] = test: Induction of apoptosis in human MGC803 cells assessed as late apoptotic cells at 20 uM incubated for 48 hrs by Annexin V-FITC/propidium iodide staining-based flow cytometric analysis (reference value: 0.84%); assay type: functional
MGC-803 [29] = test: Induction of apoptosis in human MGC803 cells assessed as necrotic cells at 20 uM incubated for 48 hrs by Annexin V-FITC/propidium iodide staining-based flow cytometric analysis (reference value: 0.18%); assay type: functional
[30] = biological target: Signal transducer and activator of transcription 3 (Homo sapiens) (UniProt P40763); test: Inhibition of STAT3 phosphorylation in human MGC803 cells at 2 to 20 uM incubated for 24 hrs by Western blot analysis; assay type: cell-based; conditions: MGC-803
Sequence of Signal transducer and activator of transcription 3 (Homo sapiens) (P40763 whole entry): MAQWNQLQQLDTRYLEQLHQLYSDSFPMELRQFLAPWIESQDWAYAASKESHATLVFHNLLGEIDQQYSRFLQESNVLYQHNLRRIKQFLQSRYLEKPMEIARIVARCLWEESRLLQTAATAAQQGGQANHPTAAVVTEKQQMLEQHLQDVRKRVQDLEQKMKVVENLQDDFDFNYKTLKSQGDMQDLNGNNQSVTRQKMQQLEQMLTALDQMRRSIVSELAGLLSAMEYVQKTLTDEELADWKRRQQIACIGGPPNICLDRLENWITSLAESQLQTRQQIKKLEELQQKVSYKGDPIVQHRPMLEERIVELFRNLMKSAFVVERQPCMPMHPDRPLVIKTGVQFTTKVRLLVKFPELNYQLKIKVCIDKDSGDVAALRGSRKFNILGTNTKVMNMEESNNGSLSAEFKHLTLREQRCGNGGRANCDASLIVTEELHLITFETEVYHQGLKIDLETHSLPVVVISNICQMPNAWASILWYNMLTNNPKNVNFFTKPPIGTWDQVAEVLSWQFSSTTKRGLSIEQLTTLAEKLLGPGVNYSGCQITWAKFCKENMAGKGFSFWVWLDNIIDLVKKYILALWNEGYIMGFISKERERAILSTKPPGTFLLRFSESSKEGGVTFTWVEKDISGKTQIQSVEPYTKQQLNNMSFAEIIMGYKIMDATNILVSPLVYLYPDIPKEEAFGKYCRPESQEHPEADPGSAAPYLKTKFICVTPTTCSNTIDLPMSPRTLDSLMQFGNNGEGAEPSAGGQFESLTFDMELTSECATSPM

MGC-803 [31] = test: Effect on total STAT3 expression in human MGC803 cells at 20 uM incubated for 24 hrs by Western blot analysis; assay type: cell-based; conditions: mgc-803, 24 h
MGC-803 [32] = test: Induction of apoptosis in human MGC803 cells assessed as PARP cleavage at 20 uM incubated for 24 hrs by Western blot analysis; assay type: functional, cell-based

Cc1c2c(c(O)c3c1[C@H](C)[C@@H](C)O3)/C(=C/c1ccccc1)C(=O)O2
Activity (HGC-27): Dose-dependent effect
IC50 (HGC-27): 3.4 µM
Activity (MGC-803 [1]): Dose-dependent effect
IC50 (MGC-803 [1]): 7 µM
Activity (BGC-823): Dose-dependent effect
IC50 (BGC-823): 6.2 µM
Activity (AGS): Dose-dependent effect
IC50 (AGS): 8.2 µM
IC50 (GES1): 29 µM
Activity (MGC-803 [2]): 50%
Activity (MGC-803 [3]): 16%
Activity (MGC-803 [4]): 34%
Activity (MGC-803 [5]): 48%
Activity (MGC-803 [6]): 16%
Activity (MGC-803 [7]): 36%
Activity (MGC-803 [8]): 49%
Activity (MGC-803 [9]): 18%
Activity (MGC-803 [10]): 33%
Activity (MGC-803 [11]): 53%
Activity (MGC-803 [12]): 23%
Activity (MGC-803 [13]): 24%
viability at 2 µM (MGC-803 [14]): 98.4%
Activity (MGC-803 [15]): 0.72%
Activity (MGC-803 [16]): 0.34%
Activity (MGC-803 [17]): 0.54%
viability at 5 µM (MGC-803 [18]): 98.7%
Activity (MGC-803 [19]): 0.78%
Activity (MGC-803 [20]): 0.24%
Activity (MGC-803 [21]): 0.26%
viability at 10 µM (MGC-803 [22]): 97.1%
Activity (MGC-803 [23]): 1.95%
Activity (MGC-803 [24]): 0.39%
Activity (MGC-803 [25]): 0.59%
viability at 20 µM (MGC-803 [26]): 89.4%
Activity (MGC-803 [27]): 7.57%
Activity (MGC-803 [28]): 1.51%
Activity (MGC-803 [29]): 1.55%
inhibition [30]: Active
Activity (MGC-803 [31]): Toxic
Activity (MGC-803 [32]): Active

CC(=O)O[C@H]1C(=O)[C@@]2(C)[C@H]([C@H](OC(=O)c3ccccc3)[C@]3(O)C[C@H](OC(=O)[C@H](O)[C@@H](NC(=O)c4ccccc4)c4ccccc4)C(C)=C1C3(C)C)[C@]1(OC(C)=O)CO[C@@H]1C[C@@H]2O [PACLITAXEL]
IC50 (HGC-27): 0.0084 µM
IC50 (MGC-803 [1]): 0.0038 µM
IC50 (BGC-823): 0.0013 µM
IC50 (AGS): 0.053 µM
IC50 (GES1): 0.0079 µM
